Activity calls are given as the source filed them. No cut-off for these calls is given here.

The test system of data set [1] is B16-F10. Description: Induction of apoptosis in mouse B16-F10 cells assessed as necrotic cells at 1 uM incubated for 48 hrs by Annexin V-FITC/PI staining based flow cytometry analysis (reference value: 2.24%). The class given is functional. On the technique in general: A flow cytometer gives signals particle by particle.
The subject of data set [2] is B16-F10. Description: Induction of cell cycle arrest in mouse B16-F10 cells assessed as accumulation of cells at G2/M phase at 1 uM incubated for 48 hrs by PI staining based flow cytometry analysis (reference value: 5.87%). The data set is classed as functional.
Data set [3] relates to B16-F10. Description: Induction of apoptosis in mouse B16-F10 cells assessed as necrotic cells at 2 uM incubated for 48 hrs by Annexin V-FITC/PI staining based flow cytometry analysis (reference value: 2.24%). The class given is functional.
Data set [4] deals with A-375. Description: Antiproliferative activity against human A-375 cells assessed as cell viability incubated for 48 hrs by MTT assay. The data set is classed as functional, cell-based. A general note: Tetrazolium assays rely on reduction of a dye to a coloured formazan, in cell work by metabolically active cells.
The test system of data set [5] is B16-F10. Description: Induction of apoptosis in mouse B16-F10 cells assessed as early apoptotic cells at 4 uM incubated for 48 hrs by Annexin V-FITC/PI staining based flow cytometry analysis (reference value: 0.45 %). The class given is functional.
Data set [6] relates to B16-F10. Description: Induction of apoptosis in mouse B16-F10 cells assessed as late apoptotic cells at 4 uM incubated for 48 hrs by Annexin V-FITC/PI staining based flow cytometry analysis (reference value: 5.02 %). The class given is functional.
Data set [7] has as its system B16-F10. Description: Antitumor activity against mouse B16-F10 cells implanted in C57BL/6J mouse assessed as tumor growth inhibition at 40 mg/kg, ip administered once daily for 9 days. The class given is functional. The settings on record: B16-F10, 216 h, time 9 day, read-out: TGI.
For data set [8], the target named is Histone deacetylase 1 (Homo sapiens, UniProt Q13547). In words: Inhibition of human recombinant HDAC1 using Ac-Leu-Gly-Lys (Ac)-AMC as substrate preincubated for 10 mins followed by substrate addition and measured after 45 mins by TECAN microtiter plate reader analysis.
The test system of data set [9] is A-375. In words: Antiproliferative activity against human A-375 cells assessed as cell growth inhibition incubated for 48 hrs by MTT assay. The class given is functional, cell-based. The settings on record: A-375, 48 h.
In data set [10] the test system is B16-F10. In words: Induction of cell cycle arrest in mouse B16-F10 cells assessed as accumulation of cells at S phase at 4 uM incubated for 48 hrs by PI staining based flow cytometry analysis (reference value: 24.04%). The class given is functional.
For data set [11], the system named is B16-F10. In words: Induction of cell cycle arrest in mouse B16-F10 cells assessed as accumulation of cells at G0/G1 phase at 8 uM incubated for 48 hrs by PI staining based flow cytometry analysis (reference value: 70.09%). The data set is classed as functional.
The test system of data set [12] is Jurkat. In words: Antiproliferative activity against human Jurkat T cells assessed as cell viability incubated for 48 hrs by MTT assay. The class given is functional, cell-based.
The target in data set [13] is T1, Protein deacetylase HDAC6 (Homo sapiens, UniProt Q9UBN7).
T1 sequence (Q9UBN7 whole entry): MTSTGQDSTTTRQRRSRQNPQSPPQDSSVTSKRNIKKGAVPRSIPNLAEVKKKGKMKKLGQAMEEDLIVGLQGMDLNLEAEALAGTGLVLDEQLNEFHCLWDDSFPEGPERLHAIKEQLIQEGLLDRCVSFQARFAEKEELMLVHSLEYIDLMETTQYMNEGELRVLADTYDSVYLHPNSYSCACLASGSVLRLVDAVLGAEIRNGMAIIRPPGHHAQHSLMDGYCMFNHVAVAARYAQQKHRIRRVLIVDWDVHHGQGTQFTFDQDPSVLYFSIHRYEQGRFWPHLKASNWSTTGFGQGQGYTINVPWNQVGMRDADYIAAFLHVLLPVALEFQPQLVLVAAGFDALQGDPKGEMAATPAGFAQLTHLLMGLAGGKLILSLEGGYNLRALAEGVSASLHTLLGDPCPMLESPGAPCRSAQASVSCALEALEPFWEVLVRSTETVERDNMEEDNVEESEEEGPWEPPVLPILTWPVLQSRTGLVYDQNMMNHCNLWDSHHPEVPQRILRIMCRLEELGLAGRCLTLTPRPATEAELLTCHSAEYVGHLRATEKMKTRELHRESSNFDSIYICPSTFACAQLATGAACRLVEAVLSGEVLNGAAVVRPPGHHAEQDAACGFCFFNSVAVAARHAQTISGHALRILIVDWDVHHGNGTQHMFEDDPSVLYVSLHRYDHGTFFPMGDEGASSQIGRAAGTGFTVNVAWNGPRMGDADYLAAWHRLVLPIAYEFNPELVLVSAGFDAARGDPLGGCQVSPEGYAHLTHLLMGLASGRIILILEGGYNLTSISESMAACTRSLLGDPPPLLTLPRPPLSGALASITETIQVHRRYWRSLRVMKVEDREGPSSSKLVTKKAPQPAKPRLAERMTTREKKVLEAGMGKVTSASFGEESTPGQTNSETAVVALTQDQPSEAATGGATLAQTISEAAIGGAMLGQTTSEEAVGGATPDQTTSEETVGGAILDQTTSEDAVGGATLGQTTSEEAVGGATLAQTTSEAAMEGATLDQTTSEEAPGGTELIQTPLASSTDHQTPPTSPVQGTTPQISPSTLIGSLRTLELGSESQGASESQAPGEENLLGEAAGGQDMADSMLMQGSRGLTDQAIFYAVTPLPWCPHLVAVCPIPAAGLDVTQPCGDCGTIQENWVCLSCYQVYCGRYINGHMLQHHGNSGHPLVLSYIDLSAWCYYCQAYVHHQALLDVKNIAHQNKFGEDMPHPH
In words: Inhibition of human recombinant HDAC6 using Ac-Leu-Gly-Lys (Ac)-AMC as substrate preincubated for 10 mins followed by substrate addition and measured after 45 mins by TECAN microtiter plate reader analysis.

Data set [14] is described as follows: Toxicity in C57BL/6J mouse implanted with mouse B16-F10 cells assessed as liver damage at 20 to 40 mg/kg, ip administered once daily for 9 days by H and E staining based analysis. The class given is organism-based. The settings on record: in vivo, 216 h, dose 20-40 mg/kg, time 9 day.

Histone deacetylase 1, sequence (Q13547 whole entry): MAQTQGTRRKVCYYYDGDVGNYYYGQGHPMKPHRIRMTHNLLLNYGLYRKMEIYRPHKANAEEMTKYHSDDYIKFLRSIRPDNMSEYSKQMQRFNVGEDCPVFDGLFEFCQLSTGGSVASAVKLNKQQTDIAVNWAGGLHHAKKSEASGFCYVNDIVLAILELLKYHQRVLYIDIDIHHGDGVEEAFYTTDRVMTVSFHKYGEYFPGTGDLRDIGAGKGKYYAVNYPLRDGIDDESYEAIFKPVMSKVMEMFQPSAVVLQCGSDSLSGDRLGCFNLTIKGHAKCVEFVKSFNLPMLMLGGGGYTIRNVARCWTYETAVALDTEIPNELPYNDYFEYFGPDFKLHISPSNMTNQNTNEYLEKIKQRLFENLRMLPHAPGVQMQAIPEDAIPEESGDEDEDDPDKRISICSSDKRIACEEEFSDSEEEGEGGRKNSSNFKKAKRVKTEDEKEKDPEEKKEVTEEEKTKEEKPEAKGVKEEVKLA

By IC50 is commonly meant the concentration that gives 50% inhibition. As for `CCCNNC(=O)CCCNCc1ccc(-c2cccc(-c3ccccc3)c2C)nc1OC`, the Activity in data set [1] is given as 2.63%; in data set [2], 4.75%; in data set [3], 4.4%; in [5], 17.1%; in data set [6], 16.4%; in [10], 4.69%. Further, the Activity in data set [11] was 96.8%; in [14], “Non-toxic”. For the same compound, the result in data set [4] and in [12] was Active. Further, in data set [7], the inhibition in vivo at 40 mg/kg was 66.5%. In addition, the IC50 in data set [8] is 2.23 µM; in data set [9], 3.46 µM; in data set [13] it was greater than 10 µM.
